In US11053204B2, “Pyrimidinyloxy benzene derivatives as herbicides” (FMC Corporation, priority 2015, dated 2021):

Tests used:
Type in all cases: in vivo
[1] = test system: Italian ryegrass (Lolium multiflorum); assay: Test A preemergence, visual injury rating; conditions: for Plant response rating, Ryegrass, Italian: 31 g ai/ha, 0 to 100 scale, 0 no effect, 100 complete control; for Ryegrass, Italian plant response rating: 125 g ai/ha, 0 to 100 scale (0 no effect, 100 complete control)
Procedure, shortened: (§1)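 Visual injury scored 0–100 (100 = complete control) against untreated controls about 10 days after treatment in a greenhouse. Test chemicals, formulated with surfactant in non-phytotoxic solvent, were sprayed on soil preemergence or on 2-10 cm, one- to two-leaf plants postemergence.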

[2] = test system: barnyardgrass (Echinochloa crus-galli); assay: Test A preemergence, visual injury rating; conditions: for Plant response rating, Barnyardgrass: 31 g ai/ha, 0 to 100 scale, 0 no effect, 100 complete control; for Barnyardgrass plant response rating: 125 g ai/ha, 0 to 100 scale (0 no effect, 100 complete control)
Procedure, shortened: as §1

[3] = test system: giant foxtail (Setaria faberii); assay: Test A preemergence, visual injury rating; conditions: for Plant response rating, Foxtail, Giant: 31 g ai/ha, 0 to 100 scale, 0 no effect, 100 complete control; for Foxtail, Giant plant response rating: 125 g ai/ha, 0 to 100 scale (0 no effect, 100 complete control)
Procedure, shortened: as §1

kochia (Kochia scoparia) [4] = assay: Test A preemergence, visual injury rating; conditions: for Plant response rating, Kochia: 31 g ai/ha, 0 to 100 scale, 0 no effect, 100 complete control; for Kochia plant response rating: 125 g ai/ha, 0 to 100 scale (0 no effect, 100 complete control)
Procedure, shortened: as §1

[5] = test system: pigweed (Amaranthus retroflexus); assay: Test A preemergence, visual injury rating; conditions: for Plant response rating, Pigweed: 31 g ai/ha, 0 to 100 scale, 0 no effect, 100 complete control; for Pigweed plant response rating: 125 g ai/ha, 0 to 100 scale (0 no effect, 100 complete control)
Procedure, shortened: as §1

[6] = test system: ragweed (common ragweed, Ambrosia elatior); assay: Test A preemergence, visual injury rating; conditions: for Plant response rating, Ragweed: 31 g ai/ha, 0 to 100 scale, 0 no effect, 100 complete control; for Ragweed plant response rating: 125 g ai/ha, 0 to 100 scale (0 no effect, 100 complete control)
Procedure, shortened: as §1

[7] = test system: Italian ryegrass (Lolium multiflorum); assay: Test A postemergence, visual injury rating; conditions: 0 is no effect, 100 is complete control; for Ryegrass, Italian plant response rating: 31 g ai/ha, 0 to 100 scale, approximately 10 days; for Ryegrass, Italian plant response rating (0 to 100 scale): 125 g ai/ha
Procedure, shortened: as §1

[8] = test system: barnyardgrass (Echinochloa crus-galli); assay: Test A postemergence, visual injury rating; conditions: 0 is no effect, 100 is complete control; for Barnyardgrass plant response rating: 31 g ai/ha, 0 to 100 scale, approximately 10 days; for Barnyardgrass plant response rating (0 to 100 scale): 125 g ai/ha
Procedure, shortened: as §1

[9] = test system: blackgrass (Alopecurus myosuroides); assay: Test A postemergence, visual injury rating; conditions: 0 is no effect, 100 is complete control; for Blackgrass plant response rating: 31 g ai/ha, 0 to 100 scale, approximately 10 days; for Blackgrass plant response rating (0 to 100 scale): 125 g ai/ha
Procedure, shortened: as §1

corn (Zea mays) = assay: Test A postemergence, visual injury rating; conditions: 0 is no effect, 100 is complete control; for Corn plant response rating: 31 g ai/ha, 0 to 100 scale, approximately 10 days; for Corn plant response rating (0 to 100 scale): 125 g ai/ha
Procedure, shortened: as §1

[10] = test system: galium (catchweed bedstraw, Galium aparine); assay: Test A postemergence, visual injury rating; conditions: 0 is no effect, 100 is complete control; for Galium plant response rating: 31 g ai/ha, 0 to 100 scale, approximately 10 days; for Galium plant response rating (0 to 100 scale): 125 g ai/ha
Procedure, shortened: as §1

[11] = test system: giant foxtail (Setaria faberii); assay: Test A postemergence, visual injury rating; conditions: 0 is no effect, 100 is complete control; for Foxtail, Giant plant response rating: 31 g ai/ha, 0 to 100 scale, approximately 10 days; for Foxtail, Giant plant response rating (0 to 100 scale): 125 g ai/ha
Procedure, shortened: as §1

kochia (Kochia scoparia) [12] = assay: Test A postemergence, visual injury rating; conditions: 0 is no effect, 100 is complete control; for Kochia plant response rating: 31 g ai/ha, 0 to 100 scale, approximately 10 days; for Kochia plant response rating (0 to 100 scale): 125 g ai/ha
Procedure, shortened: as §1

[13] = test system: pigweed (Amaranthus retroflexus); assay: Test A postemergence, visual injury rating; conditions: 0 is no effect, 100 is complete control; for Pigweed plant response rating: 31 g ai/ha, 0 to 100 scale, approximately 10 days; for Pigweed plant response rating (0 to 100 scale): 125 g ai/ha
Procedure, shortened: as §1

[14] = test system: ragweed (common ragweed, Ambrosia elatior); assay: Test A postemergence, visual injury rating; conditions: 0 is no effect, 100 is complete control; for Ragweed plant response rating: 31 g ai/ha, 0 to 100 scale, approximately 10 days; for Ragweed plant response rating (0 to 100 scale): 125 g ai/ha
Procedure, shortened: as §1

[15] = test system: wheat (Triticum aestivum); assay: Test A postemergence, visual injury rating; conditions: 0 is no effect, 100 is complete control; for Wheat plant response rating: 31 g ai/ha, 0 to 100 scale, approximately 10 days; for Wheat plant response rating (0 to 100 scale): 125 g ai/ha
Procedure, shortened: as §1

[16] = test system: barnyardgrass (Echinochloa crus-galli); assay: Test B flooded paddy test, plant response rating; conditions: 250 g ai/ha; Flood; scale of 0 to 100 where 0 is no effect and 100 is complete control; 13 to 15 days
Procedure, shortened: (§2)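 Compound was added to standing water 3 cm above soil, flood maintained, and plants held in a greenhouse before visual scoring against controls at 13 to 15 days.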

[17] = test system: ducksalad (Heteranthera limosa); assay: Test B flooded paddy test, plant response rating; conditions: 250 g ai/ha; Flood; scale of 0 to 100 where 0 is no effect and 100 is complete control; 13 to 15 days
Procedure, shortened: as §2

rice (Oryza sativa) = assay: Test B flooded paddy test, plant response rating; conditions: 250 g ai/ha; Flood; scale of 0 to 100 where 0 is no effect and 100 is complete control; 13 to 15 days
Procedure, shortened: as §2

[18] = test system: sedge, umbrella (small-flower umbrella sedge, Cyperus difformis); assay: Test B flooded paddy test, plant response rating; conditions: 250 g ai/ha; Flood; scale of 0 to 100 where 0 is no effect and 100 is complete control; 13 to 15 days
Procedure, shortened: as §2

Row | Structure (SMILES) | Plant response rating, Ryegrass, Italian [1] | Ryegrass, Italian plant response rating [1] | Plant response rating, Barnyardgrass [2] | Barnyardgrass plant response rating [2] | Plant response rating, Foxtail, Giant [3] | Foxtail, Giant plant response rating [3] | Plant response rating, Kochia (kochia (Kochia scoparia) [4]) | Kochia plant response rating (kochia (Kochia scoparia) [4]) | Plant response rating, Pigweed [5] | Pigweed plant response rating [5] | Plant response rating, Ragweed [6] | Ragweed plant response rating [6] | Ryegrass, Italian plant response rating [7] | Ryegrass, Italian plant response rating (0 to 100 scale) [7] | Barnyardgrass plant response rating [8] | Barnyardgrass plant response rating (0 to 100 scale) [8] | Blackgrass plant response rating [9] | Blackgrass plant response rating (0 to 100 scale) [9] | Corn plant response rating (corn (Zea mays)) | Corn plant response rating (0 to 100 scale) (corn (Zea mays)) | also measured
1 | O=C(OC(CCl)CCl)c1c(Br)cccc1Oc1ncc(Cl)cn1 [Compound 36] | 0 | 0 | 0 | 0 | 0 | 0 | 0 | 0 | 0 | 0 | 0 | 0 | 0 | 0 | 0 | 0 | 0 | 0 | 0 | 0 | Galium plant response rating [10]: 0; Galium plant response rating (0 to 100 scale) [10]: 0; Foxtail, Giant plant response rating [11]: 0; Foxtail, Giant plant response rating (0 to 100 scale) [11]: 0; Kochia plant response rating (kochia (Kochia scoparia) [12]): 0; Kochia plant response rating (0 to 100 scale) (kochia (Kochia scoparia) [12]): 0; Pigweed plant response rating [13]: 0; Pigweed plant response rating (0 to 100 scale) [13]: 60; Ragweed plant response rating [14]: 0; Ragweed plant response rating (0 to 100 scale) [14]: 0; Wheat plant response rating [15]: 0; Wheat plant response rating (0 to 100 scale) [15]: 0; Plant response rating, Barnyardgrass [16]: 0; Plant response rating, Ducksalad [17]: 0; Plant response rating, Rice (rice (Oryza sativa)): 0; Plant response rating, Sedge, Umbrella [18]: 0
2 | C=CC(C)COC(=O)c1c(Br)cccc1Oc1ncc(Cl)cn1 (stereo not drawn) [Compound 37] | 0 | 0 | 0 | 30 | 20 | 70 | 0 | 0 | 0 | 0 | 0 | 0 | 0 | 0 | 0 | 30 | 0 | 30 | 0 | 10 | Galium plant response rating [10]: 10; Galium plant response rating (0 to 100 scale) [10]: 40; Foxtail, Giant plant response rating [11]: 0; Foxtail, Giant plant response rating (0 to 100 scale) [11]: 40; Kochia plant response rating (kochia (Kochia scoparia) [12]): 0; Kochia plant response rating (0 to 100 scale) (kochia (Kochia scoparia) [12]): 40; Pigweed plant response rating [13]: 20; Pigweed plant response rating (0 to 100 scale) [13]: 80; Ragweed plant response rating [14]: 0; Ragweed plant response rating (0 to 100 scale) [14]: 0; Wheat plant response rating [15]: 0; Wheat plant response rating (0 to 100 scale) [15]: 0; Plant response rating, Barnyardgrass [16]: 0; Plant response rating, Ducksalad [17]: 0; Plant response rating, Rice (rice (Oryza sativa)): 0; Plant response rating, Sedge, Umbrella [18]: 0
3 | C#CCCOC(=O)c1c(Br)cccc1Oc1ncc(Cl)cn1 [Compound 38] | 0 | 0 | 20 | 90 | 30 | 100 | 0 | 40 | 60 | 100 | 0 | 0 | 0 | 0 | 10 | 60 | 0 | 0 | 0 | 10 | Galium plant response rating [10]: 50; Galium plant response rating (0 to 100 scale) [10]: 80; Foxtail, Giant plant response rating [11]: 40; Foxtail, Giant plant response rating (0 to 100 scale) [11]: 90; Kochia plant response rating (kochia (Kochia scoparia) [12]): 30; Kochia plant response rating (0 to 100 scale) (kochia (Kochia scoparia) [12]): 60; Pigweed plant response rating [13]: 80; Pigweed plant response rating (0 to 100 scale) [13]: 100; Ragweed plant response rating [14]: 0; Ragweed plant response rating (0 to 100 scale) [14]: 10; Wheat plant response rating [15]: 0; Wheat plant response rating (0 to 100 scale) [15]: 0; Plant response rating, Barnyardgrass [16]: 0; Plant response rating, Ducksalad [17]: 40; Plant response rating, Rice (rice (Oryza sativa)): 0; Plant response rating, Sedge, Umbrella [18]: 30
4 | CC(C)(C)OC(=O)c1c(F)cccc1Oc1ncc(Cl)cn1 [Compound 43] | 0 | 0 | 0 | 40 | 0 | 60 | 100 | 100 | 30 | 90 | 0 | 0 | 0 | 0 | 0 | 10 | 0 | 0 | 0 | 0 | Galium plant response rating [10]: 20; Galium plant response rating (0 to 100 scale) [10]: 40; Foxtail, Giant plant response rating [11]: 0; Foxtail, Giant plant response rating (0 to 100 scale) [11]: 0; Kochia plant response rating (kochia (Kochia scoparia) [12]): 0; Kochia plant response rating (0 to 100 scale) (kochia (Kochia scoparia) [12]): 10; Pigweed plant response rating [13]: 10; Pigweed plant response rating (0 to 100 scale) [13]: 40; Ragweed plant response rating [14]: 0; Ragweed plant response rating (0 to 100 scale) [14]: 0; Wheat plant response rating [15]: 0; Wheat plant response rating (0 to 100 scale) [15]: 0; Plant response rating, Barnyardgrass [16]: 0; Plant response rating, Ducksalad [17]: 0; Plant response rating, Rice (rice (Oryza sativa)): 0; Plant response rating, Sedge, Umbrella [18]: 0
